This is an account of results in patent EP4644396A1 (Visionpharma (Nantong) Co., Ltd, priority 2022, dated 2024).

One test addresses T1, human TLR7 (Homo sapiens, UniProt Q9NYK1).
T1 sequence (Q9NYK1 27-1049): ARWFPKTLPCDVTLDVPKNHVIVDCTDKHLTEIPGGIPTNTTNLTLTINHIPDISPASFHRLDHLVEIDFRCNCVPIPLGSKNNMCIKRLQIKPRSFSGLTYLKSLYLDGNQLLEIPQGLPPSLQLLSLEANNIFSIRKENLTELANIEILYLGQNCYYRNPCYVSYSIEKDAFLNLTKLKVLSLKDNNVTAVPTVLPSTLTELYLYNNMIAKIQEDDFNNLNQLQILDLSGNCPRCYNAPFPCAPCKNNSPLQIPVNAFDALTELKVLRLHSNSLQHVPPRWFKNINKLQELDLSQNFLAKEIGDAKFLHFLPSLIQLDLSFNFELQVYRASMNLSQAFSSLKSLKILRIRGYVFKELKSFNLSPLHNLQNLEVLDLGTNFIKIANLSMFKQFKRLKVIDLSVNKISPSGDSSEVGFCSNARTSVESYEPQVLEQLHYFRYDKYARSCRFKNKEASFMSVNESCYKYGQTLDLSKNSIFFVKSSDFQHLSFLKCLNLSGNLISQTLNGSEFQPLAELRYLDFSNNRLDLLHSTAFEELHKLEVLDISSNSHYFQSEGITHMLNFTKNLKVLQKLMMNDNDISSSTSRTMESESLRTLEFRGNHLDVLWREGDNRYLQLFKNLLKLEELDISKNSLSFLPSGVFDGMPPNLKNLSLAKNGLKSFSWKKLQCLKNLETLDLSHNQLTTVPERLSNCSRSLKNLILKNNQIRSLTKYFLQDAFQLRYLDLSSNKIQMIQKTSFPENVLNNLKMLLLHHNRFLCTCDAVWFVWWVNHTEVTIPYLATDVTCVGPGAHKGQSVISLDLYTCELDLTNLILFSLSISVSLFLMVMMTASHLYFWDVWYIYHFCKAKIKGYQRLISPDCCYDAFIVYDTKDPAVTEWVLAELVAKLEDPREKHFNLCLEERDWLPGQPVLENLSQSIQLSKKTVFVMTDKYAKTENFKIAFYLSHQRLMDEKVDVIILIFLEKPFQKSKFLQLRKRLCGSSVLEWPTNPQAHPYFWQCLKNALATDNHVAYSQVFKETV
Kind of test: HEK-Blue hTLR7 SEAP reporter gene inhibition assay. In kind it is cell-based. To be noted: hTLR7 HEK-Blue cells, TLR7 ligand Gardiquimod 10 µM, 20 hours, SEAP by Quanti-blue; class symbols; read-out: HEK-Blue hTLR7 IC50. In short, it runs like this:
(§1)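 Compounds (final 0.001–36 µM) were added 15 min before stimulation with 10 µM TLR7 agonist Gardiquimod or 10 µM TLR8 ligand for 20 h. Read-out: SEAP from NF-κB/AP-1 reporter in hTLR7 (80,000 cells/well) or hTLR8 (60,000 cells/well) HEK-Blue cells, via Quanti-Blue; IC50 derived.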
In general terms: A reporter such as luciferase makes a cellular process visible.

The next test addresses T2, human TLR8 (Homo sapiens, UniProt Q9NR97).
T2 construct: expressed in transfected cells
T2 sequence (Q9NR97 27-1041): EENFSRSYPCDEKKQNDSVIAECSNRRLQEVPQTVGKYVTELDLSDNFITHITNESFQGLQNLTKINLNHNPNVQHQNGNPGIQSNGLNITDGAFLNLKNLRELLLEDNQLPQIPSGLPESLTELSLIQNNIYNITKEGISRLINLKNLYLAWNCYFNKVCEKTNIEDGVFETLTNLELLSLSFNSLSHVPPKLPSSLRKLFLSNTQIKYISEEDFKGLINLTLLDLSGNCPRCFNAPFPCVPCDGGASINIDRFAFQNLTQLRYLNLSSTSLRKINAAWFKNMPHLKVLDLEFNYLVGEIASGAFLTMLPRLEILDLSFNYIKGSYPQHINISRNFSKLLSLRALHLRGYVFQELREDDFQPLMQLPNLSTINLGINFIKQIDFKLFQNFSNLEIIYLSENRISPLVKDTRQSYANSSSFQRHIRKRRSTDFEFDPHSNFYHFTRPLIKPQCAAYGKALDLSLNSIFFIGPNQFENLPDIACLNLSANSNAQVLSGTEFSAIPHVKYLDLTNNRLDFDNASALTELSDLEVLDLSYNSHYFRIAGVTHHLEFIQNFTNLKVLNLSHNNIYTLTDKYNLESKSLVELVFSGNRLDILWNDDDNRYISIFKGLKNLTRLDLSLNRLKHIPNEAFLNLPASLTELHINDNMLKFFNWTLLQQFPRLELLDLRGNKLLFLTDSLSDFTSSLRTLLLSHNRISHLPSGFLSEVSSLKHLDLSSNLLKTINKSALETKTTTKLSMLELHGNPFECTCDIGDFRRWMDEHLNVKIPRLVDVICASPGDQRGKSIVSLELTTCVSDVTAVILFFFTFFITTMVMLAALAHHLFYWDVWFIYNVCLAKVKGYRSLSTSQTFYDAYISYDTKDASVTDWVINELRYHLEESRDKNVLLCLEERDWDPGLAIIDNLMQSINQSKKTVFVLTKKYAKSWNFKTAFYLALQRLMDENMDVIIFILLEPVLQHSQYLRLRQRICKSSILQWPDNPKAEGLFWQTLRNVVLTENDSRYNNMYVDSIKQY
Kind of test: HEK-Blue hTLR8 SEAP reporter gene inhibition assay. In kind it is cell-based. To be noted: hTLR8 HEK-Blue cells, TLR8 ligand 10 µM, 20 hours, SEAP by Quanti-blue; class symbols; read-out: HEK-Blue hTLR8 IC50. An outline of the steps: as §1

Where only a bound is given, the exact number is not on record here.

For orientation: IC50 means the midpoint of a concentration-inhibition curve. As for `C[C@@H]1CN(c2ccc(C#N)n3ncc(F)c23)Cc2c3c(nn21)CN([C@H]1CCNC1=O)[C@@H](C)C3` [Example I-157, 4-((4R,9S)-4,9-dimethyl-8-((S)-2-oxopyrrolidin-3-yl)-3,4,7,8,9,10-hexahydropyrido[3',4':3,4]pyrazolo[1,5-a]pyrazin-2(1H)-yl)-3-fluoropyrazolo[1,5-a]pyridine-7-carbonitrile], the IC50 on human TLR7 was over 50 nM; on human TLR8, over 100 nM.

As to `C[C@@H]1CN(c2ccc(C#N)n3ncc(F)c23)Cc2c3c(nn21)CN(C[C@@H](O)CO)[C@@H](C)C3` [Example I-158, 4-((4R,9S)-8-((R)-2,3-dihydroxypropyl)-4,9-dimethyl-3,4,7,8,9,10-hexahydropyrido[3',4':3,4]pyrazolo[1,5-a]pyrazin-2(1H)-yl)-3-fluoropyrazolo[1,5-a]pyridine-7-carbonitrile], the values for the IC50 on human TLR7 and on human TLR8 were under 50 nM and under 100 nM, respectively.

In the case of `C[C@@H]1CN(c2ccc(C#N)n3ncc(F)c23)Cc2c3c(nn21)CN(C(CO)CO)[C@@H](C)C3` [Example I-159, 4-((4R,9S)-8-(1,3-dihydroxypropan-2-yl)-4,9-dimethyl-3,4,7,8,9,10-hexahydropyrido [3',4':3,4]pyrazolo[1,5-a]pyrazin-2(1H)-yl)-3-fluoropyrazolo[1,5-a]pyridine-7-carbonitrile], the IC50 at human TLR7 was over 50 nM; at human TLR8, over 100 nM.

Consider `C[C@@H]1CN(c2ccc(C#N)n3ncc(F)c23)Cc2c3c(nn21)CN(C[C@H](O)CO)[C@@H](C)C3` [Example I-160, 4-((4R,9S)-8-((S)-2,3-dihydroxypropyl)-4,9-dimethyl-3,4,7,8,9,10-hexahydropyrido[3',4':3,4]pyrazolo[1,5-a]pyrazin-2(1H)-yl)-3-fluoropyrazolo[1,5-a]pyridine-7-carbonitrile], for which the IC50 on human TLR7 is over 50 nM; on human TLR8 it was over 100 nM.

`C[C@@H]1Cc2c(nn3c2CN(c2ccc(C#N)n4ncc(F)c24)C[C@H]3C)[C@H](C)N1CC(N)=O` [Example I-165, 2-((4R,7S,9R)-2-(7-cyano-3-fluoropyrazolo[1,5-a]pyridin-4-yl)-4,7,9-trimethyl-1,2,3,4,9,10-hexahydropyrido[3',4':3,4]pyrazolo[1,5-a]pyrazin-8(7H)-yl)acetamide]: the figures for the IC50 on human TLR7 and on human TLR8 were under 50 nM and over 100 nM, respectively.

Regarding `C[C@@H]1CN(c2ccc(C#N)n3ncc(F)c23)Cc2c3c(nn21)CN(C1CCC1O)[C@@H](C)C3` (stereo partly drawn) [Example I-174, 3-Fluoro-4-((4R,9S)-8-(2-hydroxycyclobutyl)-4,9-dimethyl-3,4,7,8,9,10-hexahydropyrido[3',4':3,4]pyrazolo[1,5-a]pyrazin-2(1H)-yl)pyrazolo[1,5-a]pyridine-7-carbonitrile], the IC50 at human TLR7 is under 50 nM; on human TLR8, over 100 nM.

As for `C[C@@H]1CN(c2ccc(C#N)n3ncc(F)c23)Cc2c3c(nn21)CN(CC1(N)COC1)[C@@H](C)C3` [Example I-184, 4-((4R,9S)-8-((3-aminooxetan-3-yl)methyl)-4,9-dimethyl-3,4,7,8,9,10-hexahydropyrido[3',4':3,4]pyrazolo[1,5-a]pyrazin-2(1H)-yl)-3-fluoropyrazolo[1,5-a]pyridine-7-carbonitrile], the values for the IC50 at human TLR7 and at human TLR8 were over 50 nM and over 100 nM, respectively.

Regarding `C[C@@H]1CN(c2ccc(C#N)n3ncc(F)c23)Cc2c3c(nn21)C[C@](C)(N1CCC(O)C1)CC3` (stereo partly drawn) [Example I-187, 3-Fluoro-4-((4R,8R)-8-(3-hydroxypyrrolidin-1-yl)-4,8-dimethyl-3,4,7,8,9,10-hexahydropyrazino[1,2-b]indazol-2(1H)-yl)pyrazolo[1,5-a]pyridine-7-carbonitrile], the IC50 was under 50 nM at human TLR7 and under 100 nM on human TLR8.

For `C[C@@H]1CN(c2ccc(C#N)n3ncc(F)c23)Cc2c3c(nn21)C[C@@](C)(N1CCC(O)C1)CC3` (stereo partly drawn) [Example I-188, 3-Fluoro-4-((4R,8S)-8-(3-hydroxypyrrolidin-1-yl)-4,8-dimethyl-3,4,7,8,9,10-hexahydropyrazino[1,2-b]indazol-2(1H)-yl)pyrazolo[1,5-a]pyridine-7-carbonitrile], the IC50 is over 50 nM on human TLR7 and under 100 nM on human TLR8.

On to `COC(=O)C1(CN2Cc3nn4c(c3C[C@@H]2C)CN(c2ccc(C#N)n3ncc(F)c23)C[C@H]4C)CC1` [Example I-192, Methyl 1-(((4R,9S)-2-(7-cyano-3-fluoropyrazolo [1,5-a]pyridin-4-yl)-4,9-dimethyl-1,2,3,4,9,10-hexahydropyrido[3',4':3,4]pyrazolo[1,5-a]pyrazin-8(7H)-yl)methyl) cyclopropane-1-carboxylate], for which the IC50 at human TLR7 is over 50 nM; at human TLR8, under 100 nM.

Turning to `C[C@@H]1CN(c2ccc(C#N)n3ncc(F)c23)Cc2c3c(nn21)CN(CC12CC(C(N)=O)(C1)C2)[C@@H](C)C3` [Example I-193, 3-(((4R,9S)-2-(7-cyano-3-fluoropyrazolo [1,5-a]pyridin-4-yl)-4,9-dimethyl-1,2,3,4,9,10-hexahydropyrido[3',4':3,4]pyrazolo[1,5-a]pyrazin-8(7H)-yl)methyl)bicyclo[1.1.1] pentane-1-carboxamide], the IC50 at human TLR7 is over 50 nM; at human TLR8, under 100 nM.

Turning to `C[C@@H]1CN(c2ccc(C#N)n3ncc(F)c23)Cc2c3c(nn21)CN(CC(C)(C)C(N)=O)[C@@H](C)C3` [Example I-198, 3-((4R,9S)-2-(7-cyano-3-fluoropyrazolo[1,5-a]pyridin-4-yl)-4,9-dimethyl-1,2,3,4,9,10-hexahydropyrido[3',4':3,4]pyrazolo[1,5-a]pyrazin-8(7H)-yl)-2,2-dimethyl propanamide], the IC50 at human TLR7 was over 50 nM; on human TLR8, over 100 nM.

In the case of `C[C@@H]1CN(c2ccc(C#N)n3ncc(F)c23)Cc2c3c(nn21)CN(CC1(C(N)=O)CC1)[C@@H](C)C3` [Example I-204, 1-(((4R,9S)-2-(7-cyano-3-fluoropyrazolo [1,5-a]pyridin-4-yl)-4,9-dimethyl-1,2,3,4,9,10-hexahydropyrido[3',4':3,4]pyrazolo[1,5-a]pyrazin-8(7H)-yl)methyl)cyclopropane-1-carboxamide], the IC50 at human TLR7 was under 50 nM; on human TLR8, over 100 nM.

For the compound `C[C@@H]1CN(c2ccc(C#N)n3ncc(F)c23)Cc2c3c(nn21)CN(C[C@@](C)(O)CO)[C@@H](C)C3` [Example I-224, 4-((4R,9S)-8-((R)-2,3-dihydroxy-2-methylpropyl)-4,9-dimethyl-3,4,7,8,9,10-hexahydropyrido[3',4':3,4]pyrazolo[1,5-a]pyrazin-2(1H)-yl)-3-fluoropyrazolo[1,5-a]pyridine-7-carbonitrile], the IC50 was under 50 nM on human TLR7 and under 100 nM on human TLR8.
